The values below come from patent US20060183901A1, “Crystalline form of an indazole-carboxamide compound” (THERAVANCE, INC., priority 2005, published 2006).

Some results are limits rather than exact numbers.

The nature of data set [1]: Pharmacokinetic study in the rat. The settings on record: in vivo. The method, then:
Assay 6: Pharmacokinetic Study in the Rat
Aqueous solution formulations of test compounds were prepared in 0.1% lactic acid at a pH of between about 5 and about 6. Male Sprague-Dawley rats (CD strain, Charles River Laboratories, Wilmington, Mass.) were dosed with test compounds via intravenous administration (IV) at a dose of 2.5 mg/kg or by oral gavage (PO) at a dose of 5 mg/kg. The dosing volume was 1 mL/kg for IV and 2 mL/kg for PO administration. Serial blood samples were collected from animals pre-dose, and at 2 (IV only), 5, 15, and 30 min, and at 1, 2, 4, 8, and 24 hours post-dose. Concentrations of test compounds in blood plasma were determined by liquid chromatography-mass spectrometry analysis (LC-MS/MS) (MDS SCIEX, API 4000, Applied Biosystems, Foster City, Calif.) with a lower limit of quantitation of 1 ng/mL.
Standard pharmacokinetic parameters were assessed by non-compartmental analysis (Model 201 for IV and Model 200 for PO) using WinNonlin (Version 4.0.1, Pharsight, Mountain View, Calif.). The maximum in the curve of test compound concentration in blood plasma vs. time is denoted Cmax. The area under the concentration vs. time curve from the time of dosing to the last measurable concentration (AUC(0-t)) was calculated by the linear trapezoidal rule. Oral bioavailability (F(%)), i.e. the dose-normalized ratio of AUC(0-t) for PO administration to AUC(0-t) for IV administration, was calculated as: F(%)=AUCPO/AUCIV×DoseIV/DosePO×100%

The next data set concerns the target human 5-HT3A receptor (Homo sapiens, UniProt P46098).
The target in data set [2] is T1, human 5-HT4(c) receptor (Homo sapiens, UniProt Q13639). In words: Radioligand binding assay on 5-HT4(c) human receptors. Also noted: expressed in transfected cells. As to the method: Assay 1: Radioligand Binding Assay on 5-HT4(c) Human Receptors a. Membrane Preparation 5-HT4(c)
Cells were grown under continuous selection pressure by the addition of 800 μg/mL geneticin (GIBCO-Invitrogen Corp.: Cat #10131) to the medium.
Cells were grown to roughly 60-80% confluency (<35 subculture passages). At 20-22 hours prior to harvesting, cells were washed twice and fed with serum-free DMEM. […] The cell monolayer was lifted by gentle mechanical agitation and trituration with a 25 mL pipette.
For the membrane preparation, cell pellets were resuspended in ice-cold 50 mM 4-(2-hydroxyethyl)-1-piperazineethanesulphonic acid (HEPES), pH 7.4 (membrane preparation buffer) (40 mL/total cell yield from 30-40 T225 flasks) and homogenized using a polytron disrupter (setting 19, 2×10 s) on ice. The resultant homogenates were centrifuged at 1200 g for 5 min at 4° C. […] Protein concentration of the membrane suspension was determined by the method of Bradford (Bradford, 1976). […]
Non-specific binding was determined in the presence of 1 μM unlabeled GR113808.
Binding data were analyzed by nonlinear regression analysis with the GraphPad Prism Software package (GraphPad Software, Inc., San Diego, Calif.) using the 3-parameter model for one-site competition. […] Results are expressed as the negative decadic logarithm of the Ki values, pKi.

In data set [3] the target is T1, human 5-HT4(c) receptor. In words: Whole-cell cAMP accumulation flashplate assay with HEK-293 cells expressing human 5-HT4(c) receptors. Also noted: expressed in transfected cells; host or cells: HEK-293. It counts as cell-based. The method, then: The plates were sealed and incubated at 4° C. overnight.
Potency data are reported as pEC50 values, the negative decadic logarithm of the EC50 value, where EC50 is the effective concentration for a 50% maximal response.
(Cyclic AMP is a second messenger, typically raised through Gs and lowered through Gi signalling.)

Setting [4] is: male Sprague-Dawley rats, PO 5 mg/kg, blood plasma.

T1 sequence (Q13639 1-380 isoform Q13639-4): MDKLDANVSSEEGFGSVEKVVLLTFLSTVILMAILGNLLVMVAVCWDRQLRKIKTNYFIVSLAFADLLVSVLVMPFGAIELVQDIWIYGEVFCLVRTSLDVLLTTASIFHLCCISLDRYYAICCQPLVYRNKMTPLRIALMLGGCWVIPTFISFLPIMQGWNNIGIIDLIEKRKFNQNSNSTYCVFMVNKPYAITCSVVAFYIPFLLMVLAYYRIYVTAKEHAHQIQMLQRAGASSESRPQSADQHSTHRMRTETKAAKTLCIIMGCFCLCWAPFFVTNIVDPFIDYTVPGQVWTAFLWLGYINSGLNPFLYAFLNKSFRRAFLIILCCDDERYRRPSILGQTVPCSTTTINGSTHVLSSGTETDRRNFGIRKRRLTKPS
Sequence of human 5-HT3A receptor (P46098 24-478): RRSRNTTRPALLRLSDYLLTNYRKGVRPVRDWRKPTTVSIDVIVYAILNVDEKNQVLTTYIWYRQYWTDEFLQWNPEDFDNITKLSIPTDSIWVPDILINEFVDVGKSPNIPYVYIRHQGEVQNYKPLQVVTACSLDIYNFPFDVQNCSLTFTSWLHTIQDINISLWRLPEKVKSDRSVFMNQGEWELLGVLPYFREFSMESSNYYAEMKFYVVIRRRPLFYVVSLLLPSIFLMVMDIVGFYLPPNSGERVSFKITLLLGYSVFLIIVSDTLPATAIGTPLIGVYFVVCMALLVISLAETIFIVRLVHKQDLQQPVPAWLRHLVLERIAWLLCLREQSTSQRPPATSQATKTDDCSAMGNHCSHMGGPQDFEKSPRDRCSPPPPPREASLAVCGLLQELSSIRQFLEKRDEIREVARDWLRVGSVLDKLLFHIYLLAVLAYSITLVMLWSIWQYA
Procedure for human 5-HT3A receptor: Assay 2: Radioligand Binding Assay on 5-HT3A Human Receptors: Determination of Receptor Subtype Selectivity
Membrane Preparation 5-HT3A
Cells were grown in T-225 flasks or cell factories in 50% Dulbecco's Modified Eagles Medium (DMEM) (GIBCO-Invitrogen Corp., Carlsbad, Calif.: Cat #11965) and 50% Ham's F12 (GIBCO-Invitrogen Corp.: Cat #11765) supplemented with 10% heat inactivated fetal bovine serum (FBS) (Hyclone, Logan, Utah: Cat #SH30070.03) and (50 units) penicillin-(50 μg) streptomycin/ml (GIBCO-Invitrogen Corp.: Cat #15140) in a 5% CO2, humidified incubator at 37° C.
Cells were grown to roughly 70-80% confluency (<35 subculture passages). All steps of the membrane preparation were performed on ice. […]
Radioligand binding assays were performed in 96-well polypropylene assay plates in a total assay volume of 200 μL containing 1.5-2 μg membrane protein in 50 mM HEPES pH 7.4, containing 0.025% BSA assay buffer. […] Non-specific binding was determined in the presence of 10 μM unlabeled MDL72222. […] Filter plates were washed three times with filtration buffer (ice-cold 50 mM HEPES, pH7.4) to remove unbound radioactivity. Plates were dried, 35 μL Microscint-20 liquid scintillation fluid (Packard BioScience Co., Meriden, Conn.) was added to each well and plates were counted in a Packard Topcount liquid scintillation counter (Packard BioScience Co., Meriden, Conn.). […]

As usually defined, the AUC(0-t) is the area under the concentration-time curve up to a stated or last time point. Read a low AUC(0-t) as less exposure. Usually Cmax stands for the highest concentration seen after dosing. The bioavailability is the share of a dose that reaches the circulation, judged against a reference dose that is usually intravenous. A word on the Ki: it is a dissociation constant, usually derived from enzyme kinetics or from competition with a known ligand. Read a high Ki as weaker binding. The term EC50 denotes the concentration at which the effect is half-maximal. A high value points to lower potency in that assay. In data set [1] (setting [4]), `CC(=O)N1CCN(CCN2C3CCC2CC(NC(=O)c2nn(C(C)C)c4ccccc24)C3)CC1` [compound of formula I, 1-isopropyl-1H-indazole-3-carboxylic acid {(1S,3R,5R)-8-[2-(4-acetylpiperazin-1-yl)ethyl]-8-azabicyclo[3.2.1]oct-3-yl}amide] gave an AUC(0-t) of 730 ng·h/mL and a maximum concentration (Cmax) of 250 ng/mL. Further, the bioavailability in data set [1] (male, Sprague-Dawley, PO 5 mg/kg vs IV 2.5 mg/kg, read-out: oral bioavailability (F(%))) was approximately 100%. Besides, the “5-HT4/5-HT3 receptor subtype selectivity, ratio Ki(5-HT3A)/Ki(5-HT4(c))” value on human 5-HT3A receptor was “greater than 500”. The molecule also yielded an inhibition constant Ki on human 5-HT4(c) receptor [2] of less than 100 nM. Further, the EC50 at human 5-HT4(c) receptor [3] is less than 31.6 nM.
